{"source": "patent US8999358B2", "about": "“Aqueous insecticidal compositions and the use thereof for protecting lignocellulose-containing materials” (BASF Aktiengesellschaft, priority 2005, dated 2015)", "test_system": "wood-destroying soil-dwelling termites (Reticulitermes santonensis)", "assay": "Laboratory termite resistance test of treated wood specimens (AWPA E1-97) after leaching according to DIN EN 84", "assay_type": "in vivo", "conditions": "Test termite R. santonensis; Pinus spp. (Southern Yellow Pine) specimens 25x25x6 mm^3; AWPA E1-97, 4 weeks; α-cypermethrin concentration in wood giving score 10 to 9", "protocol": "The aqueous active ingredient composition according to the invention of Example 3 was diluted with water to three different active ingredient concentrations. For comparison purposes, the anionic dispersion D6, which is not in accordance with the invention, was studied, and α-cypermethrin was dissolved in acetone, and the solution was diluted with further acetone to give the active ingredient concentrations in question.\nTo determine the limits of the efficacy of the composition according to the invention with regard to wood-destroying soil-dwelling termites (Reticulitermes santonensis), wood specimens of Pinus spp. with the dimensions 25×25×6 mm^3 (Southern Yellow Pine) were tested in accordance with the American test standard AWPA E1-97 (see, in this context, “Standard method for laboratory evaluation to determine resistance to subterranean termites”, American Wood-Preservers' Association, 2001) under constrained experimental conditions after leaching according to DIN EN 84: 1997-01 (see, in this context, “accelerated aging of treated timber before biological tests”, European standardization committee).\nThe destruction of the timber caused by attack by the termites was registered after 4 weeks of testing by visually scoring the timber specimens as specified in AWPA E1-97. In addition, the mortality rate among the termites was estimated. […]"}
{"smiles": "CC1(C)C(C=C(Cl)Cl)C1C(=O)OC(C#N)c1cccc(Oc2ccccc2)c1", "note": "(stereo not drawn) [Solution of α-cypermethrin, α-cypermethrin]", "values": [{"measurement": "Limits of the efficacy after leaching (EN 84)", "value": "29-40 g/m^3"}]}
